Reference: patent US8546579B2, “Bicycloheteroaryl compounds as P2X7 modulators and uses thereof” (Evotec (US) Inc., priority 2006, dated 2013)

Target: T1, P2X7 receptor (Homo sapiens, UniProt Q99572)
T1 construct: host or cells: THP-1 cells differentiated with LPS and IFN-γ
T1 sequence (Q99572 1-595): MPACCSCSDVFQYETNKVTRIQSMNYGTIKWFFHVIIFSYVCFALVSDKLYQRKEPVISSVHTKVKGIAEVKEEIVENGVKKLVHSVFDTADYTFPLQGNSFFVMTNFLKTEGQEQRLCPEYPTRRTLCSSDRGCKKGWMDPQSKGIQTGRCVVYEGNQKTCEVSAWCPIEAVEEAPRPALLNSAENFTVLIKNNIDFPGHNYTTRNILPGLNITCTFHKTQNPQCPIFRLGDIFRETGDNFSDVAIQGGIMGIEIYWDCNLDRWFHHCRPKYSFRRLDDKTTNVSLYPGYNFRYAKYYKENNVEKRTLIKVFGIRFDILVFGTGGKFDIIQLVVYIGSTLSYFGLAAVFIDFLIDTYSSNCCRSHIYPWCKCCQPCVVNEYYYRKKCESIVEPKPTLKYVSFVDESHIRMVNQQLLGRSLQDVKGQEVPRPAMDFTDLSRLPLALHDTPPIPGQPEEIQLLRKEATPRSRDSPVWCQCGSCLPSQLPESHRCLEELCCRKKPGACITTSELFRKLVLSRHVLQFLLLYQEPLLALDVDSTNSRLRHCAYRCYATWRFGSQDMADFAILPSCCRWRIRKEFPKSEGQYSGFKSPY
Assay: IL-1β release assay in differentiated THP-1 cells stimulated with BzATP (Example 9)
Assay type: cell-based
Parameters: inhibition: dose or concentration left out as unconfirmed
Settings: THP-1; read-out: IL-1β % Inhib.
In short: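 THP-1 cells differentiated 16 h with LPS and IFN-γ (100 ng/mL each), re-primed 2 h with LPS, then compound-pretreated 30 min before 250 uM BzATP for 45 min. Supernatant IL-1β quantified by ELISA; background-adjusted percent inhibition fitted to four-parameter logistic for IC50.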

| SMILES | inhibition [%] |
| --- | --- |
| O=C(Cc1ccc2c(c1)OCO2)Nc1cccc2c(=O)n(CCCN3CCCC3=O)ccc12 [Compound 1527] | 0 to 25 |
| COc1cc(CC(=O)Nc2cccc3c(=O)n(CCCN4CCCC4=O)ccc23)cc(OC)c1 [Compound 1528] | 0 to 25 |
| COc1c(C)cc(C(=O)Nc2cccc3c(=O)n(CCCN4CCCC4=O)ccc23)cc1C [Compound 1529] | 0 to 25 |
| Cc1ccc(C(=O)Nc2cccc3c(=O)n(CCCN4CCCC4=O)ccc23)cc1Cl [Compound 1530] | 26 to 50 |
| O=C(Nc1cccc2c(=O)n(CCCN3CCCC3=O)ccc12)C(O)c1ccccc1Cl (stereo not drawn) [Compound 1531] | 26 to 50 |
| O=C1CCCN1CCCn1ccc2c(NC(=O)[C@@]34C[C@@H]5C[C@@H](C[C@@H]3C5)C4)cccc2c1=O [Compound 1532] | 0 to 25 |
| O=C(Nc1cccc2c(=O)n(CCCN3CCCC3=O)ccc12)c1cccc2c1OCCO2 [Compound 1533] | 26 to 50 |
| Cc1c(Cl)cccc1C(=O)Nc1cccc2c(=O)n(CCCN3CCCC3=O)ccc12 [Compound 1534] | 51 to 75 |
| COc1ccc(CC(=O)Nc2cccc3c(=O)n(CCCN4CCCC4=O)ccc23)c(OC)c1 [Compound 1535] | 0 to 25 |
| Cc1cc(C(=O)Nc2cccc3c(=O)n(CCCN4CCCC4=O)ccc23)ccc1F [Compound 1536] | 0 to 25 |
| O=C(CCc1ccc(Cl)cc1)Nc1cccc2c(=O)n(CCCN3CCCC3=O)ccc12 [Compound 1537] | 26 to 50 |
| CCOc1ccccc1CC(=O)Nc1cccc2c(=O)n(CCCN3CCCC3=O)ccc12 [Compound 1538] | 26 to 50 |
| COc1ccc(CC(=O)Nc2cccc3c(=O)n(CCCN4CCCC4=O)ccc23)cc1C [Compound 1539] | 0 to 25 |
| Cc1ccc(Cl)c(C(=O)Nc2cccc3c(=O)n(CCCN4CCCC4=O)ccc23)c1 [Compound 1540] | 0 to 25 |
| Cc1ccc(Cl)cc1C(=O)Nc1cccc2c(=O)n(CCCN3CCCC3=O)ccc12 [Compound 1541] | 0 to 25 |
| Cc1cccc(CCC(=O)Nc2cccc3c(=O)n(CCCN4CCCC4=O)ccc23)c1 [Compound 1542] | 0 to 25 |
| O=C(Nc1cccc2c(=O)n(CCCN3CCCC3=O)ccc12)c1cc2cc(Cl)ccc2o1 [Compound 1543] | 0 to 25 |
| Cc1cccc(C(=O)Nc2cccc3c(=O)n(CCCN4CCCC4=O)ccc23)c1Cl [Compound 1544] | 0 to 25 |
| COc1ccc(C(=O)Nc2cccc3c(=O)n(CCCN4CCCC4=O)ccc23)cc1C [Compound 1545] | 0 to 25 |
| Cc1ccc(CCC(=O)Nc2cccc3c(=O)n(CCCN4CCCC4=O)ccc23)c(C)c1 [Compound 1546] | 0 to 25 |
| O=C(CCc1cccc(Cl)c1)Nc1cccc2c(=O)n(CCCN3CCCC3=O)ccc12 [Compound 1547] | 0 to 25 |
| COc1ccc(C(=O)Nc2cccc3c(=O)n(Cc4ccc(OC(F)(F)F)cc4)ccc23)c(C)c1 [Compound 1548] | 0 to 25 |

| SMILES | inhibition [%] |
| --- | --- |
| C[C@H]1CC[C@H](C(=O)Nc2cccc3c(=O)n(Cc4ccc(OC(F)(F)F)cc4)ccc23)CC1 [Compound 1549] | 0 to 25 |
| Cc1ccccc1CCC(=O)Nc1cccc2c(=O)n(Cc3ccc(OC(F)(F)F)cc3)ccc12 [Compound 1550] | 0 to 25 |
| O=C(Nc1cccc2c(=O)n(Cc3ccc(OC(F)(F)F)cc3)ccc12)c1ccc(-c2ccccc2)o1 [Compound 1551] | 0 to 25 |
| COc1cccc(CCC(=O)Nc2cccc3c(=O)n(Cc4ccc(OC(F)(F)F)cc4)ccc23)c1 [Compound 1552] | 0 to 25 |
| Cc1cc(C)c(CC(=O)Nc2cccc3c(=O)n(Cc4ccc(OC(F)(F)F)cc4)ccc23)c(C)c1 [Compound 1553] | 0 to 25 |
| Cc1ccc(C)c(CC(=O)Nc2cccc3c(=O)n(Cc4ccc(OC(F)(F)F)cc4)ccc23)c1 [Compound 1554] | 0 to 25 |
| COc1ccc(C(=O)Nc2cccc3c(=O)n(Cc4ccc(OC(F)(F)F)cc4)ccc23)cc1Cl [Compound 1555] | 0 to 25 |
| CCOc1cccc(C(=O)Nc2cccc3c(=O)n(Cc4ccc(OC(F)(F)F)cc4)ccc23)c1 [Compound 1556] | 0 to 25 |
| O=C(CCc1ccccc1Cl)Nc1cccc2c(=O)n(Cc3ccc(OC(F)(F)F)cc3)ccc12 [Compound 1557] | 0 to 25 |
| O=C(CCc1ccc2c(c1)OCO2)Nc1cccc2c(=O)n(Cc3ccc(OC(F)(F)F)cc3)ccc12 [Compound 1558] | 0 to 25 |
| Cc1cc(C(=O)Nc2cccc3c(=O)n(Cc4ccc(OC(F)(F)F)cc4)ccc23)ccc1Cl [Compound 1559] | 0 to 25 |
| O=C(Nc1cccc2c(=O)n(Cc3ccc(OC(F)(F)F)cc3)ccc12)c1ccccc1Cl [Compound 1560] | 0 to 25 |
| O=C(Nc1cccc2c(=O)n(Cc3ccc(OC(F)(F)F)cc3)ccc12)c1cc(Cl)ccc1Cl [Compound 1561] | 0 to 25 |
| Cc1ccccc1C(=O)Nc1cccc2c(=O)n(Cc3ccc(OC(F)(F)F)cc3)ccc12 [Compound 1562] | 0 to 25 |
| Cc1cccc(C(=O)Nc2cccc3c(=O)n(Cc4ccc(OC(F)(F)F)cc4)ccc23)c1C [Compound 1563] | 0 to 25 |
| Cc1ccc(C(=O)Nc2cccc3c(=O)n(Cc4ccc(OC(F)(F)F)cc4)ccc23)c(C)c1 [Compound 1564] | 0 to 25 |
| Cc1ccc(C)c(C(=O)Nc2cccc3c(=O)n(Cc4ccc(OC(F)(F)F)cc4)ccc23)c1 [Compound 1565] | 0 to 25 |
| COc1cc(OC)cc(C(=O)Nc2cccc3c(=O)n(Cc4ccc(OC(F)(F)F)cc4)ccc23)c1 [Compound 1566] | 26 to 50 |
| Cc1cccc(C(=O)Nc2cccc3c(=O)n(Cc4ccc(OC(F)(F)F)cc4)ccc23)c1 [Compound 1567] | 0 to 25 |
| CCOc1ccc(C(=O)Nc2cccc3c(=O)n(Cc4ccc(OC(F)(F)F)cc4)ccc23)cc1 [Compound 1568] | 0 to 25 |
| CC(C(=O)Nc1cccc2c(=O)n(Cc3ccc(OC(F)(F)F)cc3)ccc12)c1ccccc1 (stereo not drawn) [Compound 1570] | 0 to 25 |
| COc1ccccc1CCC(=O)Nc1cccc2c(=O)n(Cc3ccc(OC(F)(F)F)cc3)ccc12 [Compound 1571] | 0 to 25 |

| SMILES | inhibition [%] |
| --- | --- |
| COc1ccc(CCC(=O)Nc2cccc3c(=O)n(Cc4ccc(OC(F)(F)F)cc4)ccc23)cc1 [Compound 1572] | 0 to 25 |
| O=C(Cc1cccc2ccccc12)Nc1cccc2c(=O)n(Cc3ccc(OC(F)(F)F)cc3)ccc12 [Compound 1573] | 0 to 25 |
| O=C(Nc1cccc2c(=O)n(Cc3ccc(OC(F)(F)F)cc3)ccc12)c1ccc2ccccc2c1 [Compound 1574] | 0 to 25 |
| O=C(Cc1ccccc1F)Nc1cccc2c(=O)n(Cc3ccc(OC(F)(F)F)cc3)ccc12 [Compound 1575] | 0 to 25 |
| O=C(Cc1ccccc1Cl)Nc1cccc2c(=O)n(Cc3ccc(OC(F)(F)F)cc3)ccc12 [Compound 1576] | 0 to 25 |
| COc1ccccc1CC(=O)Nc1cccc2c(=O)n(Cc3ccc(OC(F)(F)F)cc3)ccc12 [Compound 1577] | 0 to 25 |
| COc1ccc(OC)c(CC(=O)Nc2cccc3c(=O)n(Cc4ccc(OC(F)(F)F)cc4)ccc23)c1 [Compound 1578] | 0 to 25 |
| Cc1ccccc1CC(=O)Nc1cccc2c(=O)n(Cc3ccc(OC(F)(F)F)cc3)ccc12 [Compound 1579] | 0 to 25 |
| COc1cccc(CC(=O)Nc2cccc3c(=O)n(Cc4ccc(OC(F)(F)F)cc4)ccc23)c1 [Compound 1580] | 0 to 25 |
| COc1ccc(CC(=O)Nc2cccc3c(=O)n(Cc4ccc(OC(F)(F)F)cc4)ccc23)cc1OC [Compound 1581] | 0 to 25 |
| Cc1cccc(CC(=O)Nc2cccc3c(=O)n(Cc4ccc(OC(F)(F)F)cc4)ccc23)c1 [Compound 1582] | 0 to 25 |
| COc1ccc(CC(=O)Nc2cccc3c(=O)n(Cc4ccc(OC(F)(F)F)cc4)ccc23)cc1 [Compound 1583] | 26 to 50 |
| CCOc1ccc(CC(=O)Nc2cccc3c(=O)n(Cc4ccc(OC(F)(F)F)cc4)ccc23)cc1 [Compound 1584] | 0 to 25 |
| Cc1ccc(CC(=O)Nc2cccc3c(=O)n(Cc4ccc(OC(F)(F)F)cc4)ccc23)cc1 [Compound 1585] | 0 to 25 |
| O=C(CCCc1ccccc1)Nc1cccc2c(=O)n(Cc3ccc(OC(F)(F)F)cc3)ccc12 [Compound 1586] | 0 to 25 |
| O=C(Nc1cccc2c(=O)n(Cc3ccc(OC(F)(F)F)cc3)ccc12)c1cc2ccccc2o1 [Compound 1587] | 0 to 25 |
| O=C(Cc1ccc2c(c1)OCO2)Nc1cccc2c(=O)n(Cc3ccc(OC(F)(F)F)cc3)ccc12 [Compound 1588] | 0 to 25 |
| COc1cc(CC(=O)Nc2cccc3c(=O)n(Cc4ccc(OC(F)(F)F)cc4)ccc23)cc(OC)c1 [Compound 1589] | 0 to 25 |
| COc1c(C)cc(C(=O)Nc2cccc3c(=O)n(Cc4ccc(OC(F)(F)F)cc4)ccc23)cc1C [Compound 1590] | 26 to 50 |
| Cc1ccc(C(=O)Nc2cccc3c(=O)n(Cc4ccc(OC(F)(F)F)cc4)ccc23)cc1Cl [Compound 1591] | 0 to 25 |
| Cc1cc(Cl)ccc1C(=O)Nc1cccc2c(=O)n(Cc3ccc(OC(F)(F)F)cc3)ccc12 [Compound 1592] | 0 to 25 |
| O=C(CC1CC2CC[C@H]1C2)Nc1cccc2c(=O)n(Cc3ccc(OC(F)(F)F)cc3)ccc12 (stereo partly drawn) [Compound 1593] | 0 to 25 |
